According to ChEMBL document CHEMBL1135890, “Structure-activity relationships of 2'-fluoro-2',3'-unsaturated D-nucleosides as anti-HIV-1 agents” (J Med Chem, 2002):
pEC50, pIC50: −log10 of the molar value.

What was measured:
[1] = (§1) Toxicity against human peripheral blood mononuclear (PBM) cells
[2] = tested on: Vero; test: (§2) Cytotoxicity against Vero cells was determined.; type: cell-based; settings: Chlorocebus sabaeus
[3] = tested on: Human immunodeficiency virus 1; test: Anti-HIV activity was determined; type: functional, organism-based
[4] = tested on: CCRF-CEM; test: Cytotoxicity against CEM cells; type: cell-based, Homo sapiens
[5] = Half life was determined.; type: ADME
[6] = Anti-HIV activity against human peripheral blood mononuclear (PBM) cell lines infected with M184V Pitt (FTC resistant isolate); type: functional
[7] = Anti-HIV activity against human peripheral blood mononuclear (PBM) cell lines infected with XxBRU Pitt (FTC sensitive isolate); type: functional
[8] = tested on: Vero; test: as §2; type: functional, cell-based; settings: Chlorocebus sabaeus
[9] = as §1; type: functional
[10] = Half life at pH 2.0; type: ADME; settings: buffer
[11] = tested on: CCRF-CEM; test: Cytotoxicity against CEM cells was determined.; type: functional, cell-based; settings: Homo sapiens
[12] = human, peripheral blood mononuclear (PBM) cells, IC50

| pEC50 ([3]; Human immunodeficiency virus 1) | SMILES | pIC50 [1, 12] | pIC50 [2] | pIC50 ([4]; Homo sapiens, CCRF-CEM) | pEC50 [3] | further results |
| --- | --- | --- | --- | --- | --- | --- |
| < 4.00 | Nc1nc(N)c2ncn([C@@H]3O[C@@H](CO)C=C3F)c2n1 | < 4.00 | < 4.00 | < 4.00 |  |  |
| 5.40 | Nc1nc(F)nc2c1ncn2[C@H]1O[C@H](CO)C=C1F | 4.39 | 4.79 | 4.55 |  |  |
| < 4.00 | Nc1nc(F)nc2c1ncn2[C@@H]1O[C@H](CO)C=C1F | < 4.00 | < 4.00 | < 4.00 |  |  |
| 5.52 | Nc1nc(N)c2ncn([C@@H]3O[C@H](CO)C=C3F)c2n1 | < 4.00 | < 4.00 | < 4.00 |  |  |
| < 4.00 | OC[C@@H]1C=C(F)[C@@H](n2cnc3c(O)ncnc32)O1 | < 4.00 | < 4.00 | < 4.00 |  |  |

More lines, now with the values behind:

| SMILES | pEC50 ([3]; Human immunodeficiency virus 1) | pIC50 [1, 12] | pIC50 [2] | pIC50 ([4]; Homo sapiens, CCRF-CEM) | pEC50 [3] | further results |
| --- | --- | --- | --- | --- | --- | --- |
| Nc1ncnc2c1ncn2[C@@H]1O[C@H](CO)[C@@H](O)[C@H]1O [ADENOSINE] |  |  |  |  |  | half-life [5]: 0.417 min |
| Nc1nc(O)c2ncn([C@@H]3O[C@H](CO)C=C3F)c2n1 (stereo in doubt; 18) |  |  |  |  |  | pEC50 [6]: 4.95 |
| Cc1cn([C@H]2C[C@H](N=[N+]=[N-])[C@@H](CO)O2)c(=O)[nH]c1=O [ZIDOVUDINE] |  | < 4.00 |  |  |  | pEC50 [6]: 8.40; pEC50 [7]: 8.30 |
| OC[C@@H]1C=C(F)[C@H](n2cnc3c(O)ncnc32)O1 | 6.00 | 4.03 | 4.06 | < 4.00 |  | pEC50 [6]: 5.60; pEC50 [7]: 5.55 |
| Nc1ccn([C@@H]2O[C@H](CO)C=C2F)c(=O)n1 (stereo in doubt; 28) |  |  |  |  | 5.59 | pIC50 [1]: 5.14; pIC50 ([4]; ccrf-cem): 4.45 |
| Nc1nc(=O)n([C@@H]2O[C@H](CO)C=C2F)cc1F (stereo in doubt; 31) |  |  |  |  | < 4.00 |  |
| Nc1nc(O)c2ncn([C@@H]3O[C@H](CO)C=C3F)c2n1 (stereo in doubt; 19) |  | < 4.00 | < 4.00 | < 4.00 | 4.74 |  |
| Nc1nc(Cl)c2ncn([C@@H]3O[C@H](CO)C=C3F)c2n1 (stereo in doubt; 11) |  |  |  |  | 5.37 | pIC50 [1]: 4.01; pIC50 ([4]; ccrf-cem): < 4.00 |
| Cc1cn([C@@H]2O[C@H](CO)C=C2F)c(=O)nc1N | < 4.00 | < 4.00 | < 4.00 | < 4.00 |  |  |
| Nc1nc(Cl)c2ncn([C@@H]3O[C@H](CO)C=C3F)c2n1 (stereo in doubt; 13) |  | 4.11 | < 4.00 |  | < 4.12 | pIC50 ([4]; ccrf-cem): 4.52 |
| Nc1ncnc2c1ncn2[C@@H]1O[C@H](CO)C=C1F (stereo in doubt; 15) |  | < 4.00 | < 4.00 | < 4.00 | < 4.00 |  |
| Nc1ncnc2c1ncn2[C@@H]1O[C@H](CO)C=C1F (stereo in doubt; 14) |  |  |  |  | 6.36 | pIC50 [8]: < 4.00; pIC50 [9]: 4.17; pEC50 [6]: 6.10; pEC50 [7]: 6.34; half-life [10]: 72 h; half-life [5]: 41.6 min; pIC50 [11]: 4.24 |
| Nc1nc(=O)n([C@@H]2O[C@H](CO)C=C2F)cc1F (stereo in doubt; 30) |  | < 4.00 | < 4.00 | < 4.00 | 6.09 | pEC50 [6]: 5.02; pEC50 [7]: 5.51 |
| Nc1ccn([C@@H]2O[C@H](CO)C=C2F)c(=O)n1 (stereo in doubt; 29) |  |  | < 4.00 |  | < 4.00 | pIC50 [1]: < 4.00; pIC50 ([4]; ccrf-cem): < 4.00 |
